Consider 25 compounds from patent US9029389B2 (Institut Pasteur Korea, priority 2011, dated 2015).

This assay addresses T1, Human 5-lipoxygenase (Homo sapiens, UniProt P09917).
T1 construct: purchased Cayman 60402; host or cells: insect cells
T1 sequence (P09917 1-674): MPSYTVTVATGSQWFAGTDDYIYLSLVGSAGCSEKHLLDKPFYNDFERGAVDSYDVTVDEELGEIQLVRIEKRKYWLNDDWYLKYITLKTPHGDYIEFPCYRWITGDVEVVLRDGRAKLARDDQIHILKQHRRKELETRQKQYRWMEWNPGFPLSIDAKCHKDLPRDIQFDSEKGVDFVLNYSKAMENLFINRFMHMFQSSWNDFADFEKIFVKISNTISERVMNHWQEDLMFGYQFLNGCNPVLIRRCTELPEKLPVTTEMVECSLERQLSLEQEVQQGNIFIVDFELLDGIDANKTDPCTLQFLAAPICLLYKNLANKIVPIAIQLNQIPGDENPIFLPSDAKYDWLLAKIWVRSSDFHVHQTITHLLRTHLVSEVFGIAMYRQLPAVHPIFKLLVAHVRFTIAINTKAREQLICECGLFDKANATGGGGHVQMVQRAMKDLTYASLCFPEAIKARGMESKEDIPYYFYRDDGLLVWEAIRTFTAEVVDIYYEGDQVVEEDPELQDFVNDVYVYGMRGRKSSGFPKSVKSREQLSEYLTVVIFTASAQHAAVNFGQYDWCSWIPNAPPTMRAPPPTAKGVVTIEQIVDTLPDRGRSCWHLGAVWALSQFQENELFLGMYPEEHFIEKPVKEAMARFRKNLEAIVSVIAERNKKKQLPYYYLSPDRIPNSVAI
Nature of the assay: Activity of compounds against 5-LO enzyme (LTB4 measurement and/or fluorescence method). The format is biochemical. Conditions: for inhibition at 10 µM: 5-LO, single concentration of 10 uM in duplicate; for IC50: 6 or 11 point dose response in duplicate. The gist of the method:
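Two read-outs: LTB4 measured by EIA and/or LC/MS/MS with LTB4-d4 standard after 15 min RT compound preincubation with insect-cell 5-LO and a 5 min 37 °C reaction on 3 uM arachidonic acid (0.1 mM ATP, pH 7.4). The room-temperature fluorescence format used 20 uM H2DCFDA, 100 uM ATP, 3 uM arachidonic acid, 5 min; IC50 from 6/11-point curves.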

The structures appear in SMILES notation.

In the case of `CCc1nc2c(OC)cccn2c1C(=O)NCc1ccc(N2CCN(c3ccc(F)cc3)CC2)cc1` [compound 263, 2-Ethyl-N-(4-(4-(4-fluorophenyl)piperazin-1-yl)benzyl)-8-methoxyimidazo[1,2-a]pyridine-3-carboxamide], the inhibition at 10 µM is 40 to 69%.

Turning to `CCc1nc2cc(OC)ccn2c1C(=O)NCc1ccc(N2CCN(c3ccc(F)cc3)CC2)cc1` [compound 264, 2-Ethyl-N-(4-(4-(4-fluorophenyl)piperazin-1-yl)benzyl)-7-methoxyimidazo[1,2-a]pyridine-3-carboxamide], the inhibition at 10 µM is less than 40%.

With `CCc1nc2ccccn2c1C(=O)NCc1ccc(N2CCC(c3ccc(F)cc3)CC2)cc1` [compound 265, 2-Ethyl-N-(4-(4-(4-fluorophenyl)piperidin-1-yl)benzyl)imidazo[1,2-a]pyridine-3-carboxamide], the inhibition at 10 µM is more than 69% and the IC50 is less than 1 µM.

In turn, `CCc1nc2ccc(Cl)cn2c1C(=O)NCc1ccc(N2CCC(c3ccc(OC(F)(F)F)cc3)CC2)cc1` [compound 267, 6-Chloro-2-ethyl-N-(4-(4-(4-(trifluoromethoxy)phenyl)piperidin-1-yl)benzyl)imidazo[1,2-a]pyridine-3-carboxamide] displayed an inhibition at 10 µM of less than 40%.

`CCc1nc2cc(Cl)ccn2c1C(=O)NCc1ccc(N2CCC(c3ccc(OC(F)(F)F)cc3)CC2)cc1` [compound 268, 7-Chloro-2-ethyl-N-(4-(4-(4-(trifluoromethoxy)phenyl)piperidin-1-yl)benzyl)imidazo[1,2-a]pyridine-3-carboxamide] yielded an inhibition at 10 µM of 40 to 69%.

In turn, `CCOC(=O)C1CCN(c2ccc(CNC(=O)c3c(CC)nc4ccc(Cl)cn34)cc2)CC1` [compound 269, Ethyl1-(4-((6-chloro-2-ethylimidazo[1,2-a]pyridine-3-carboxamido)methyl)phenyl)piperidine-4-carboxylate] returned an inhibition at 10 µM of 40 to 69%.

In the case of `CCOC(=O)C1CCN(c2ccc(CNC(=O)c3c(CC)nc4cc(Cl)ccn34)cc2)CC1` [compound 270, Ethyl 1-(4-((7-chloro-2-ethylimidazo[1,2-a]pyridine-3-carboxamido)methyl)phenyl)piperidine-4-carboxylate], the inhibition at 10 µM lay in the range of 40 to 69%.

The compound `CCc1nc2ccc(OC)cn2c1C(=O)NCc1ccc(N2CCOCC2)cc1` [compound 272] returned an inhibition at 10 µM of less than 40%.

In turn, `CCc1nc2cc(Cl)ccn2c1C(=O)NCc1ccc(N2CCC(C(=O)O)CC2)cc1` [compound 275, 1-(4-((7-Chloro-2-ethylimidazo[1,2-a]pyridine-3-carboxamido)methyl)phenyl)piperidine-4-carboxylic acid] had an inhibition at 10 µM of less than 40%.

The compound `CCc1nc2ccc(Cl)cn2c1C(=O)NCc1ccc(N2CCC(COC(C)C)CC2)cc1` [compound 276, 6-Chloro-2-ethyl-N-(4-(4-(isopropoxymethyl)piperidin-1-yl)benzyl)imidazo[1,2-a]pyridine-3-carboxamide] gave an inhibition at 10 µM of less than 40%.

Compound `CCc1nc2cc(Cl)ccn2c1C(=O)NCc1ccc(N2CCC(COC(C)C)CC2)cc1` [compound 277, 7-Chloro-2-ethyl-N-(4-(4-(isopropoxymethyl)piperidin-1-yl)benzyl)imidazo[1,2-a]pyridine-3-carboxamide] showed an inhibition at 10 µM of less than 40%.

The compound `CCc1nc2cc(C)ccn2c1C(=O)NCc1ccc(OC(F)(F)F)cc1` [compound 280, 2-Ethyl-7-methyl-N-(4-(trifluoromethoxy)benzyl)imidazo[1,2-a]pyridine-3-carboxamide] had an inhibition at 10 µM of less than 40%.

In turn, `CCc1nc2cc(Br)ccn2c1C(=O)NCc1ccc(OC(F)(F)F)cc1` [compound 281, 7-Bromo-2-ethyl-N-(4-(trifluoromethoxy)benzyl)imidazo[1,2-a]pyridine-3-carboxamide] showed an inhibition at 10 µM of 40 to 69%.

`CCc1nc2c(F)cccn2c1C(=O)NCc1ccc(OC(F)(F)F)cc1` [compound 282, 2-Ethyl-8-fluoro-N-(4-(trifluoromethoxy)benzyl)imidazo[1,2-a]pyridine-3-carboxamide] returned an inhibition at 10 µM of less than 40%.

On to `CCc1nc2c(-c3ccncc3)cccn2c1C(=O)NCc1ccc(N2CCN(c3ccc(F)cc3)CC2)cc1` [compound 283, 2-Ethyl-N-(4-(4-(4-fluorophenyl)piperazin-1-yl)benzyl)-8-(pyridin-4-yl)imidazo[1,2-a]pyridine-3-carboxamide], for which the inhibition at 10 µM is less than 40%.

Take `CCc1nc2c(-c3ccncc3)cccn2c1C(=O)NCc1ccc(N2CCOCC2)cc1` [compound 284, 2-Ethyl-N-(4-morpholinobenzyl)-8-(pyridin-4-yl)imidazo[1,2-a]pyridine-3-carboxamide]: the inhibition at 10 µM was less than 40%.

As to `CCc1nc2ccc(Cl)cn2c1C(=O)NCc1ccc(N2CCC(COC3CCCC3)CC2)cc1` [compound 285, 6-Chloro-N-(4-(4-(cyclopentyloxymethyl)piperidin-1-yl)benzyl)-2-ethylimidazo[1,2-a]pyridine-3-carboxamide], the inhibition at 10 µM was less than 40%.

`CCc1nc2cc(Cl)ccn2c1C(=O)NCc1ccc(N2CCC(COC3CCCC3)CC2)cc1` [compound 286, 7-Chloro-N-(4-(4-(cyclopentyloxymethyl)piperidin-1-yl)benzyl)-2-ethylimidazo[1,2-a]pyridine-3-carboxamide] had an inhibition at 10 µM of 40 to 69%.

`CCc1nc2cc(Cl)ccn2c1C(=O)NCc1ccc(-c2ccc(C=O)cc2)cc1` [compound 287, 7-Chloro-2-ethyl-N-((4′-formylbiphenyl-4-yl)methyl)imidazo[1,2-a]pyridine-3-carboxamide] had an inhibition at 10 µM of 40 to 69%.

For `CCc1nc2ccc(Cl)cn2c1C(=O)NCc1ccc(N2CCC(C(=O)N(C)C)CC2)cc1` [compound 293, 6-Chloro-N-(4-(4-(dimethylcarbamoyl)piperidin-1-yl)benzyl)-2-ethylimidazo[1,2-a]pyridine-3-carboxamide], the inhibition at 10 µM is less than 40%.

As for `CCc1nc2cc(Cl)ccn2c1C(=O)NCc1ccc(N2CCC(C(=O)N(C)C)CC2)cc1` [compound 294, 7-Chloro-N-(4-(4-(dimethylcarbamoyl)piperidin-1-yl)benzyl)-2-ethylimidazo[1,2-a]pyridine-3-carboxamide], the inhibition at 10 µM was less than 40%.

In the case of `CCc1nc2cc(Cl)ccn2c1C(=O)NCc1ccc(N2CCC(COC(F)F)CC2)cc1` [compound 295, 7-Chloro-N-(4-(4-((difluoromethoxy)methyl)piperidin-1-yl)benzyl)-2-ethylimidazo[1,2-a]pyridine-3-carboxamide], the inhibition at 10 µM was more than 69% and the IC50 was more than 20 µM.

In the case of `CCc1nc2ccc(Cl)cn2c1C(=O)NCc1ccc(N2CCC(c3ccc(Cl)cc3)CC2)cc1` [compound 296, 6-Chloro-N-(4-(4-(4-chlorophenyl)piperidin-1-yl)benzyl)-2-ethylimidazo[1,2-a]pyridine-3-carboxamide], the inhibition at 10 µM is more than 69%.

In turn, `CCc1nc2ccc(Cl)cn2c1C(=O)NCc1ccc(N2CCC(OCc3ccc(F)cc3)CC2)cc1` [compound 300, 6-Chloro-2-ethyl-N-(4-(4-(4-fluorobenzyloxy)piperidin-1-yl)benzyl)imidazo[1,2-a]pyridine-3-carboxamide] returned an inhibition at 10 µM of less than 40%.

Consider `CCc1nc2cc(Cl)ccn2c1C(=O)NCc1ccc(N2CCC(OCc3ccc(F)cc3)CC2)cc1` [compound 301, 7-Chloro-2-ethyl-N-(4-(4-(4-fluorobenzyloxy)piperidin-1-yl)benzyl)imidazo[1,2-a]pyridine-3-carboxamide], for which the inhibition at 10 µM is 40 to 69%.
